Measured values as given in patent US9675615B2, “2,3-dihydroquinazolin-4(1H)-one derivatives for use in the treatment of viral infections” (priority 2012, dated 2017).
Read-outs that look alike come from different tables or passages of the source.

Tests used:
[1] = test system: recombinant Ebolavirus that encodes green fluorescent protein; assay: microbe, parasite or virus in culture; assay type: cell-based; settings: read-out: IC50 (concentration that results in 50% inhibition of infection)
filoviruses = settings: cited from earlier work
Ebolavirus = settings: cited from earlier work

SMILES | IC50 ([1]; Orthoebolavirus, HeLa) | further results
O=C1c2ccccc2NC(c2ccc(-c3ccccn3)s2)N1c1ccccc1 (centres unmarked) [Compound 19, 3-Phenyl-2-(5-(pyridin-2-yl)thiophen-2-yl)-2,3-dihydroquinazolin-4(1H)-one] | 5.6 µM | 
CCc1ccc(C2Nc3ccccc3C(=O)N2c2ccccc2)s1 (centres unmarked) [Compound 7, 2-(5-Ethylthiophen-2-yl)-3-phenyl-2,3-dihydroquinazolin-4(1H)-one] | 11 µM | 
NC(=O)c1ncn([C@@H]2O[C@H](CO)[C@@H](O)[C@H]2O)n1 [ribavirin] |  | efficacy against filoviruses (filoviruses): ineffective
O=C1c2ccccc2NC(c2ccc(-c3cccs3)s2)N1c1ccccc1 (centres unmarked) [Compound 18, 2-([2,2′-Bithiophen]-5-yl)-3-phenyl-2,3-dihydroquinazolin-4(1H)-one] | 4.7 µM | 
Cc1ccc(C2Nc3ccccc3C(=O)N2c2ccccc2)s1 (centres unmarked) [Retro-2^cycl, reference compound] |  | IC50 [1]: 42.5 µM
O=C1c2ccccc2NC(c2ccc(-c3ccco3)s2)N1c1ccccc1 (centres unmarked) [Compound 20, 2-(5-(Furan-2-yl)thiophen-2-yl)-3-phenyl-2,3-dihydroquinazolin-4(1H)-one] | 5.4 µM | 
CC(Cc1ccc(O)c(O)c1)C(C)Cc1ccc(O)c(O)c1 (centres unmarked) [NDGA] |  | effect on Ebolavirus infectivity (Ebolavirus): loss of infectivity
O=C1c2ccccc2NC(c2ccc(-c3ccccc3)s2)N1c1ccccc1 (centres unmarked) [Compound 13, 3-Phenyl-2-(5-phenylthiophen-2-yl)-2,3-dihydroquinazolin-4(1H)-one] | 4.2 µM | 
C[C@H]1CCC/C=C/[C@@H]2C[C@H](O)C[C@H]2[C@H](O)/C=C/C(=O)O1 [Brefeldin A] |  | effect on Ebolavirus infectivity (Ebolavirus): loss of infectivity
CSc1ccc(C2Nc3ccccc3C(=O)N2c2ccccc2)s1 (centres unmarked) [Compound 17, 2-(5-(Methylthio)thiophen-2-yl)-3-phenyl-2,3-dihydroquinazolin-4(1H)-one] | 7.4 µM | 
Cc1nc(-c2ccc(C3Nc4ccccc4C(=O)N3c3ccccc3)s2)cs1 (centres unmarked) [Compound 21, 2-(5-(2-Methylthiazol-4-yl)thiophen-2-yl)-3-phenyl-2,3-dihydroquinazolin-4(1H)-one] | 2.3 µM | 
